Experimental data reported in PMC8696185, “Purification and Characterization of Plantaricin YKX and Assessment of Its Inhibitory Activity Against Alicyclobacillus spp” (Frontiers in Microbiology, 2021).
Bridges are numbered along the chain shown (N, C = ends). Where no end group is shown, it is not given here. [ ]: non-standard residue; d: D form. Dhb = C/C=C(\N)C(=O)O; Dha = C=C(N)C(=O)O

Experiments:
[1] = tested on: A. acidoterrestris ATCC 3922; assay: Kill kinetics (time-killing curves); format: cell-based, Alicyclobacillus acidoterrestris; settings: for Time within which all cells were inactivated: at the MICs (1 × MIC)
From the text: FIGURE 3 Antibacterial activity of plantaricin YKX against A. acidoterrestris.

[2] = tested on: luxS gene of A. acidoterrestris; assay: RT-qPCR, transcription of luxS; format: cell-based, Alicyclobacillus acidoterrestris; settings: co-cultured at 0.5 × MIC, 0.7 × MIC, and 0.9 × MIC, overnight incubation
Method: To verify the effect of plantaricin YKX on the QS system, Real-Time Quantitative PCR (RT-qPCR) was used to detect the transcription level changes of the gene (luxS) encoding a QS signal (Al-2) synthesis enzyme (LuxS) in A. acidoterrestris. The mid-logarithmic phase cells of A. acidoterrestris were treated with plantaricin YKX at 0.5 ×, 0.7 ×, or 0.9 × MIC. After overnight incubation, RNA was extracted according to the Trizol method.
The reverse transcription reaction system (10 μL) contained: Total RNA 2 μL; dNTP 0.5 μL; Random primers 0.5 μL; and distilled water without RNAase 4 μL. All samples were maintained at 70°C for 5 min and then kept immediately in an ice bath. 5X reverse transcription buffer 2 μL, RNAase inhibitor 0.5 μL, and MMLV reverse transcription enzyme 0.5 μL were added immediately. Thus, the reverse transcription conditions were: 30°C for 10 min, 42°C for 1 h, 70°C for 15 min, and 4°C forever. After the reverse transcription reaction, the DNA templates were diluted 5 times and stored at −20°C until used.
PCR reaction included: upstream primer (10 μM) 0.2 μL, downstream primer (10 μM) 0.2 μL, 2 × Ultra SYBR Mixture 5 μL, ddH2O 3.6 μL, DNA templates 1 μL. The PCR reaction parameters were: 95°C for 10 min, 95°C for 15 s, 60°C for 1 min, 40 cycles. Primers (5′-[…]-3′; 5′-[…]-3′) were designed according to the gene sequence of luxS by the Primer 5.0 software.

[3] = tested on: Alicyclobacillus spp.; settings: literature value; ref Yamazaki et al., 2000; cited from earlier work
Method: On the other hand, the MICs of plantaricin YKX and nisin inactivated all cells within 180 min.

[4] = tested on: A. acidoterrestris DSM3922 endospores; assay: Endospore germination, microscopic counting; format: cell-based, Alicyclobacillus acidoterrestris; settings: 2 h post-germination treatment, untreated 43.6%
[5] = tested on: A. acidoterrestris DSM3922 cells; assay: Flow cytometry, propidium iodide uptake (membrane integrity); format: cell-based, Alicyclobacillus acidoterrestris; settings: 2 × MIC, incubation for 30 min, 45°C, propidium iodide 10 μg/mL
Method: Log phase A. acidoterrestris DSM3922 cells were incubated with plantaricin YKX at 0.5×, 1×, or 2× MIC (control: cells treated with PBS) at 45°C for 15 min. Next, they were centrifuged, rinsed, and treated with propidium iodide (10 μg/mL) for 15 min at 45°C ([Gut et al., 2011]). After removing the unbound stain, the fluorescence intensities were analyzed by an AccuriC6 flow cytometer (BD Biosciences, MI, United States). Forty thousand events were acquired per sample and detected at excitation (488 nm) and emission wavelengths (525 nm).

[6] = tested on: A. acidoterrestris DSM3922 as indicator stain; assay: Effect of enzymes on antibacterial activity (stability); format: in vitro ADME, Alicyclobacillus acidoterrestris; design: key to Antibacterial ability after Lipase, α-AMYLASE / Antibacterial ability after Trypsin, pepsin: Antimicrobial activity +: there is a clear inhibition zone.; Antimicrobial activity –: there is no inhibition zone; key to Antibacterial ability after Proteinase K, papain, α-chymotrypsin: −: Antimicrobial activity –: there is no inhibition zone; settings: enzyme 1.0 mg/mL, 37°C for 30 min, agar well diffusion
Method: (§1) The effect of temperature (60, 80, or 100°C) on the activity of purified plantaricin YKX was analyzed within a certain time (10, 20, or 30 min) ([An et al., 2017]). The long-term stability was investigated at 37°C for […] and at 4°C for 3 months ([Yue et al., 2013]). The impact of pH on plantaricin YKX was analyzed by adjusting pH to 2–10 with 1 M HCl and 1 M NaOH solutions and determining residual activities after maintaining at 37°C for 2 h ([Yue et al., 2013]). The effect of enzymes on the antibacterial activity of plantaricin YKX was determined following incubation with enzymes lipase [pH 7.0, 10 mM phosphate-buffered saline (PBS)], α-amylase (pH 7.0, 10 mM PBS), trypsin (pH 7.5, 10 mM PBS), proteinase K (pH 7.5, 50 mM Tris-HCl), papain (pH 7.5, 10 mM PBS), and pepsin (pH 3.0, 0.1 M HCl) at 37°C for 30 min with their optimal pH and a final concentration of 1.0 mg/mL. The enzymes were inactivated by heating at 100°C for 5 min, and the pH was then adjusted to pH 6.0 ([Yue et al., 2013]). Plantaricin YKX without any treatments was employed as a control. Agar well diffusion assay was utilized to determine the antibacterial activity ([Pei et al., 2020]).

[7] = tested on: E. coli CICC10302 as indicator stain; assay: as above; format: in vitro ADME, Escherichia coli; design: key to Antibacterial ability after Lipase, α-AMYLASE / Antibacterial ability after Trypsin, pepsin: Antimicrobial activity +: there is a clear inhibition zone.; Antimicrobial activity –: there is no inhibition zone; key to Antibacterial ability after Proteinase K, papain, α-chymotrypsin: −: Antimicrobial activity –: there is no inhibition zone; settings: enzyme 1.0 mg/mL, 37°C for 30 min, agar well diffusion
Method: as §1

[8] = tested on: A. acidoterrestris DSM3922; assay: Guaiacol production, HPLC; format: cell-based, Alicyclobacillus acidoterrestris; settings: AAM broth, 45°C, HPLC 275 nm, control 20.6 μg/L
Method: A. acidoterrestris DSM3922 was inoculated in AAM broth containing plantaricin YKX at 0.5 ×, 0.7 × or 0.9 × MIC (control without plantaricin YKX) and cultured at 45°C. Samples were tested for OD600 after 24 h. After the samples were centrifuged at 8,000 g at 4°C and passed through 0.22 μm filter membrane, the guaiacol content was determined with an analytical HPLC dual pump Shimadzu LC-20 AB system equipped with UltimateXB-C18 column (4.6 × 250 mm, particle size 5 μm, Kyoto, Japan) ([Lin et al., 2006]). The mobile phase was 30% (v/v) acetonitrile in 0.1% (v/v) formic acid. The column temperature was maintained at 40°C. The mobile phase flow rate was set at 1 mL/min. The detection wavelength was 275 nm.

[9] = tested on: Clostridium butyricum CICC 10350; settings: CICC 10350, 24 h
[10] = Heat, storage and pH stability (indicator not given); format: physicochemical
Method: as §1

[11] = tested on: E. coli CICC10302 as indicator stain; assay: Heat, storage and pH stability, residual antibacterial activity; format: physicochemical, Escherichia coli; design: key to Antibacterial ability after pH 2–7 / Antibacterial ability after 60, 80, and 100°C / Antibacterial ability after 37°C for 14 d / Antibacterial ability after 2 months at 4°C: Antimicrobial activity +: there is a clear inhibition zone.; Antimicrobial activity –: there is no inhibition zone; key to Antibacterial ability after pH 9–10: −: Antimicrobial activity –: there is no inhibition zone; settings: agar well diffusion
Method: as §1

[12] = tested on: A. acidoterrestris DSM3922 as indicator stain; assay: as above; format: physicochemical, Alicyclobacillus acidoterrestris; design: key to Antibacterial ability after pH 2–7 / Antibacterial ability after 60, 80, and 100°C / Antibacterial ability after 37°C for 14 d / Antibacterial ability after 2 months at 4°C: Antimicrobial activity +: there is a clear inhibition zone.; Antimicrobial activity –: there is no inhibition zone; key to Antibacterial ability after pH 9–10: −: Antimicrobial activity –: there is no inhibition zone; settings: agar well diffusion
Method: as §1

[13] = tested on: Candida albicans CICC 1965; assay: Minimal inhibitory concentration (MIC); format: cell-based; settings: twofold serial dilution, 96-well plate, 24 h at 30°C, OD600; highest conc. not given in μg/mL (stock 1,024 IU/mL)
Method: (§2) The minimal inhibitory concentration (MIC) of plantaricin YKX toward indicator strains was measured according to the [Clinical and Laboratory Standards Institute (2012)]. Indicator strains in the mid-logarithmic growth phase were adjusted to the OD600 of 0.5 and diluted 100-fold with appropriate media. First, the plantaricin YKX solution (1,024 IU/mL) was twofold serially diluted with distilled water. Next, 100 μL each indicator strain suspension and aliquots of plantaricin YKX solution were incubated [1:1 (v/v) ratio] in a 96-well plate for 24 h at 45°C with Alicyclobacillus spp. as indicator strain and at 30°C for other indicator strains listed in Table 1. The efficacy of nisin (> 90% pure, J & K Chemical Technology) was also determined. As a control, distilled water was added to the indicator strains suspensions. Following incubation, the MICs were determined by measuring the OD600 using a microplate reader (SpectraMax 190, Molecular Devices, CA, United States).

[14] = tested on: Saccharomyces cerevisiae CICC 1002; assay: Minimal inhibitory concentration (MIC); format: cell-based; settings: twofold serial dilution, 96-well plate, 24 h at 30°C, OD600; highest conc. not given in μg/mL (stock 1,024 IU/mL)
Method: as §2

[15] = tested on: Enterobacter cloacae CICC 21539; assay: Minimal inhibitory concentration (MIC); format: cell-based; settings: twofold serial dilution, 96-well plate, 24 h at 30°C, OD600; highest conc. not given in μg/mL (stock 1,024 IU/mL)
Method: as §2

[16] = tested on: Salmonella paratyphi β CICC 10437; assay: Minimal inhibitory concentration (MIC); format: cell-based; settings: twofold serial dilution, 96-well plate, 24 h at 30°C, OD600; highest conc. not given in μg/mL (stock 1,024 IU/mL)
Method: as §2

[17] = tested on: Pseudomonas aeruginosa CICC 21636; assay: Minimal inhibitory concentration (MIC); format: cell-based; settings: twofold serial dilution, 96-well plate, 24 h at 30°C, OD600; highest conc. not given in μg/mL (stock 1,024 IU/mL)
Method: as §2

[18] = tested on: Aspergillus niger CICC 2124; assay: Minimal inhibitory concentration (MIC); format: cell-based; settings: twofold serial dilution, 96-well plate, 24 h at 30°C, OD600; highest conc. not given in μg/mL (stock 1,024 IU/mL)
Method: as §2

[19] = optimal pH (proteinase K pH 7.5 Tris-HCl, papain pH 7.5 PBS)
[20] = pH 7.0, 10 mM PBS, enzyme inactivated 100°C 5 min, pH adjusted to 6.0
[21] = trypsin pH 7.5 10 mM PBS, pepsin pH 3.0 0.1 M HCl
[22] = pH adjusted with 1 M HCl / 1 M NaOH, 37°C for 2 h

nisin: typical class I (lanthionine-based) bacteriocin, > 90% pure, J & K Chemical Technology (I[Dhb]SI[Dha]LCTPGCKTGALMGCNMKTATCHCSIHV[Dha]K; bridge 23-26, 13-19, 8-11, 25-28, 3-7; not fully specified (residues 3, 8, 13, 23, 25, bridges); UniProt P13068 24-57, looked up) [reference compound]
Time within which all cells were inactivated [1]: ≤ 180 min | Expression of the luxS gene [2]: did not show a similar function | MIC [3]: 16 to 32 µg/mL

KYGNGLSRIFSALK [plantaricin YKX]
Germination rate of spores ([4]; 0.5 × MIC): 55.4% | Germination rate of spores ([4]; 0.7 × MIC): 70.5% | Germination rate of spores ([4]; 0.9 × MIC): 81.7% | Proportion of PI-stained cells [5]: 91.6% | Antibacterial ability after Proteinase K, papain, α-chymotrypsin [6, 19]: – | Antibacterial ability after Lipase, α-AMYLASE [6, 20]: + | Antibacterial ability after Trypsin, pepsin [6, 21]: + | Antibacterial ability after Proteinase K, papain, α-chymotrypsin [7, 19]: – | Antibacterial ability after Lipase, α-AMYLASE [7, 20]: + | Antibacterial ability after Trypsin, pepsin [7, 21]: + | Production of guaiacol ([8]; 0.5 × MIC): 16.8 µg/L | Production of guaiacol ([8]; 0.7 × MIC): 10.1 µg/L | Production of guaiacol ([8]; 0.9 × MIC): 8.9 µg/L | Time within which the number of cells was substantially decreased ([1]; 2 MIC): ≤ 30 min | Time within which all cells were inactivated [1]: ≤ 180 min | MICs [9]: 32 µg/mL | Expression of the luxS gene [2]: increased significantly | Antibacterial activity after storage ([10]; 3 months at 4°C, agar well diffusion): did not alter its antibacterial activity | pH at which the activity was lost ([10]; 37°C for 2 h at adjusted pH, residual activity by agar well diffusion): 9.0 | Antibacterial activity after storage ([10]; 37°C for up to 14 days, agar well diffusion): did not alter its antibacterial activity | pH range in which active (abstract) ([10]; as stated in the abstract): 3–8 | Heat stability, activity after heating ([10]; heating at 60, 80, or 100°C (10, 20, or 30 min), agar well diffusion): retaining activity | Antibacterial ability after 60, 80, and 100°C ([11]; heated for 10, 20, or 30 min): + | Antibacterial ability after 2 months at 4°C ([11]; long-term storage): + | Antibacterial ability after 37°C for 14 d ([11]; long-term storage): + | Antibacterial ability after pH 2–7 [11, 22]: + | Antibacterial ability after pH 9–10 [11, 22]: – | Antibacterial ability after 60, 80, and 100°C ([12]; heated for 10, 20, or 30 min): + | Antibacterial ability after 2 months at 4°C ([12]; long-term storage): + | Antibacterial ability after 37°C for 14 d ([12]; long-term storage): + | Antibacterial ability after pH 2–7 [12, 22]: + | Antibacterial ability after pH 9–10 [12, 22]: – | MICs [13]: > highest conc. tested | MICs [14]: > highest conc. tested | MICs [15]: > highest conc. tested | MICs [16]: > highest conc. tested | MICs [17]: > highest conc. tested | MICs [18]: > highest conc. tested
